The text below walks through data of patent US20120122908A1, “Novel C-4 Substituted Retinoids” (University of Maryland, priority 2000, published 2012).

For one data set, the target named is ATRA 4-hydroxylase (Mesocricetus auratus, UniProt A0A1U7QD41). Put plainly: Hamster liver microsome assay of ATRA metabolism (ATRA 4-hydroxylase inhibition). The class given is biochemical. Particulars: hamster liver microsomes. The protocol: Washed hamster liver microsomes were prepared as follows: Livers are removed from sacrificed animals, rinsed in ice-cold 0.9% NaCl solution and homogenized in a 3-fold volume of 0.25 M sucrose-0.05 M Tris-HCl (pH 7.4) using a blender. Microsomes are isolated by differential centrifugation (10,000×g, 20 minutes; 100,000×g, 60 minutes; 4° C.) using a well-known technique (Van Wauwe, J.; Van Nyen, G.; Coene, M-C.; Stoppie, P.; Cols, W.; Goossens, J, Borghgraef, P.; Janssen, P A J, Liarozole, an Inhibitor of Retinoic Acid Metabolism, Exerts Retinoid-Mimetic Effects, In Vivo. J. Pharmacol. Expt. Ther. 261, 773-779, 1992). The microsomes are suspended in PBS buffer (pH 7.4), in 1 ml aliquots and stored at −70° C. until required.
Sequence of ATRA 4-hydroxylase (A0A1U7QD41 entry or part of it): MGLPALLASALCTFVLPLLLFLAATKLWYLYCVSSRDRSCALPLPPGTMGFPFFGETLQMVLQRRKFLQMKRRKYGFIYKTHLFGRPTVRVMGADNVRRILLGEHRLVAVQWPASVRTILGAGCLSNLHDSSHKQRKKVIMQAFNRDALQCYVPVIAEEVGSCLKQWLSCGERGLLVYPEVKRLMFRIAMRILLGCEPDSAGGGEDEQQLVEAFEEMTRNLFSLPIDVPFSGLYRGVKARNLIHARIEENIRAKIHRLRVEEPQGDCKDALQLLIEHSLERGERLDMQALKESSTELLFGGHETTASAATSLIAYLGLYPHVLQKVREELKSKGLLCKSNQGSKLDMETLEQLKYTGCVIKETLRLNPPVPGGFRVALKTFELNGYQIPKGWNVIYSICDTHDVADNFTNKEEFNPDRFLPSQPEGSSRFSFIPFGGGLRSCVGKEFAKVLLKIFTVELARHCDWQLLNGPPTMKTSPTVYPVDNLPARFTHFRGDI
The standard reaction mixture (total of 400 μl) is composed of assay buffer, 140 μl; microsomes, 100 μl ([…]); NADPH, 100 μl ([…]); and a C-4 substituted ATRA analog dissolved in DMSO, 40 μl. After a 3 minute preincubation at 37° C., the reaction is initiated by addition of 20 μl of [11,12-^3H]-ATRA (20 μCi/ml). The incubation is carried out for 30 minutes under oxygen with shaking in a water bath at 37° C. The reaction is stopped by acidification with 0.1 ml formic acid, and the samples are extracted (×2) with EtOAc (2 ml) containing 0.05% butylated hydroxyanisole. The combined organic extracts are evaporated in vacuo, dissolved in 200 μl of the mobile phase for HPLC. An aliquot is analyzed for tritium content by liquid scintillation spectrometry. Usually, >95% of the added radioactivity is recovered. Most of the samples (150 μl) are analyzed on a 10 (m C18 Bondapak column (3.9×300 mm, Millipore), eluted with a multi-linear gradient solvent system: i, MeOH—H2O—HCOOH (60:40:0.05) containing 10 mM ammonium acetate (100 (0%) and ii, MeOH (0 (100%) at 2 ml/min. The radioactivity is measured by an on-line radio-detector. The Rts of ATRA, 4-hydroxy-ATRA and 4-oxo-ATRA are determined by UV absorbance at 350 nm in separate cuvettes. Typically, 80±5% of [11, 12-^3H]ATRA is converted into the metabolites.
The C-4 substituted ATRA analogs are tested at two concentrations, 500 and 1000 nM. IC50 and Ki values are determined.
Incubation of [11,12-^3]ATRA with hamster liver microsomes as described above results in the formation of polar metabolites, including 4-hydroxy-ATRA and 4-oxo-ATRA (see FIG. 7A). […] VN/14-1RA inhibits cytochrome P450-dependent metabolism of ATRA.
Table 2B represents repeated testing of some of the compounds in Table 2A and testing on additional compounds. For comparison, the IC50 values of liarozole and ketoconazole (known inhibitors of ATRA 4-hydroxylase) were also determined.
For orientation: Liver microsomes are a subcellular fraction often used to study metabolism.

In another data set the test system is LNCaP cells. The data set can be described thus: LNCaP cell growth, compound in combination with ATRA. The data set is classed as cell-based, human. The conditions noted are these: for inhibition of proliferation of LNCaP cells: 10^−8 to 10^−5 M in combination with 10^−5 M ATRA, compared with no drug or ATRA only; for concentration(s) that prevent the LNCaP cells from increasing in number: in combination with 10^−5 M ATRA, tested 10^−8 to 10^−5 M. The protocol: LNCaP cells are androgen-dependent cell cultures. PC-3 cells are androgen independent cell culture.
LNCaP cells are transferred into ATRA-free medium 3 days prior to start of experiments. Medium consist of phenol red-free IMEM supplemented with 5% FBS and 1% P/S. Cell are then plated into 24-well culture plates (15000 cells per well) in 1 mL of same medium. After a 24-hour attachment period, the vehicle (ethanol) or ATRA (10^−5 M) alone or ATRA in combination with a novel compound at a range of concentrations are added to triplicate wells. Medium/treatments are changed every 3 days. After 9 days of treatment, cells are removed from the wells with typsin/EDTA and counted in a Coulter counter. Using well-known methods (Wouters W, Van Dun J, Dillen A, Coene M.-C, Cools W and De Coster R, Effects of liarozole, a new antitumoral compound an retinoic acid-induced inhibition of cell growth and on retinoic acid metabolism in MCF-7 breast cancer cells, Cancer Res 52: 2841-2846, 1992), one determines the inhibitory effect of the novel compounds on LNCaP cells grown with ATRA.

Data set [1] deals with ATRA 4-hydroxylase activity in LNCaP cells. Put plainly: Induction of ATRA metabolism in LNCaP cells. The class given is cell-based, human. The conditions noted are these: LNCaP cells preincubated with 1.0 μM ATRA, 0.8 μM [3H]ATRA. How it is done: FIG. 17: Metabolism of 0.8 μM 3H-ATRA Following Induction with 1 μM ATRA in LNCaP Cells.
The potential of these cell lines to metabolize ATRA was investigated. […] LNCaP cells were preincubated with 1.0 μM ATRA for different time periods up to 48 hour. Following preincubation, ATRA metabolism was determined using 0.8 μM [11,12-^3H]ATRA. Induction of 4-hydroxylase activity ([^3H]ATRA metabolism was time-dependent with a fast onset and maximal induction achieved after a preincubation period of 18 hour (FIG. 17).

For a further data set, the system named is PC-3 tumors. Put plainly: Growth of PC-3 tumors in male nude mice. The data set is classed as in vivo. Particulars: PC-3 xenografts. The protocol:
FIG. 20: Effect of ATRA and VN/50A-1 on PC 3 Tumor Volumes in Male Nude Mice
The effects of VN/50A-1 on tumor growth was determined in mouse xenografts and compared to ATRA as the reference treatment (FIG. 20). Mice were grouped 35 days after cell inoculation when measurable tumor volume was approximately 500 mm^3. Total tumor volume in the control mice increased 5.4-fold over 7 weeks and tumor volume in the mice treated with ATRA increased by 3.2-fold (41% reduction compared with control). In the mice treated with VN/50A-1, tumor volume increased by 3.5-fold, which was 38% reduction versus control mice, which correlated well with accumulation of ATRA in plasma and in tumors. […] VN/50A-1 is completely eliminated from plasma within 3 hour of administration to mice (see FIG. 18). The inventive compounds with longer half-lives will have favorable bioavailability and are expected to be more efficacious.

Data set [2] in a line: Effect of VN/65-4 on plasma elimination of ATRA. The class given is in vivo. The conditions noted are these: mice, VN/65-4 10 mg/kg s.c. one hour before ATRA 1.0 mg/kg s.c. The protocol: FIG. 19: Plasma Concentration of ATRA (1 mg/kg) After a Dose of 10 mg/kg body weight of VN/65-4.
To determine the ability of VN/65-4 to delay the velocity of plasma elimination of ATRA, mice were treated s.c. with VN/65-4 (10 mg/kg). One hour later, the mice were administered s.c. ATRA (1.0 mg/kg) and sacrificed at various time points. […] From these experiments it is believed that it is possible to improve ATRA efficacy by reducing its enhanced metabolism to increase endogenous levels.

The next data set deals with T1, CYP17 (17-lyase) (Homo sapiens, UniProt P05093).
T1 sequence (P05093 1-508): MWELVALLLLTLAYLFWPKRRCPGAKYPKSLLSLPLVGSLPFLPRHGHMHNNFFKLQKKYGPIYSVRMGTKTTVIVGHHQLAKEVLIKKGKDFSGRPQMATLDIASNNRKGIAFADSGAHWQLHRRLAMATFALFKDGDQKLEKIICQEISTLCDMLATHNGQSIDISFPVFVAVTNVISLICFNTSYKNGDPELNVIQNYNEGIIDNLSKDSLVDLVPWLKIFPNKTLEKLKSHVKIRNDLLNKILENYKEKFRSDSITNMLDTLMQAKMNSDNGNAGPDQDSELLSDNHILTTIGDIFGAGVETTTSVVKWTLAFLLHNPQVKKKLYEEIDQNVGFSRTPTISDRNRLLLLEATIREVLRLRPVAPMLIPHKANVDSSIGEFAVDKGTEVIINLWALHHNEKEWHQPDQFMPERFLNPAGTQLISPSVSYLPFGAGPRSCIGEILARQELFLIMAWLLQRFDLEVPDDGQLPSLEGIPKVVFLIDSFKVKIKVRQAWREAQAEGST
The data set can be described thus: Selectivity: effect on CYP17 (17-lyase). The class given is biochemical. Particulars: concentration as high as 5 μM. The protocol:
(§1) The selectivity of the compounds of the present invention towards ATRA-4-hydroxylase was tested by measuring the effect on the key enzymes in the biosynthesis of estradiol and dehydroepiandrosterone, CYP19 (aromatase) and CYP17 (17-lyase), respectively.

The target of another data set is T2, CYP19 (aromatase) (Homo sapiens, UniProt P11511).
T2 sequence (P11511 1-503): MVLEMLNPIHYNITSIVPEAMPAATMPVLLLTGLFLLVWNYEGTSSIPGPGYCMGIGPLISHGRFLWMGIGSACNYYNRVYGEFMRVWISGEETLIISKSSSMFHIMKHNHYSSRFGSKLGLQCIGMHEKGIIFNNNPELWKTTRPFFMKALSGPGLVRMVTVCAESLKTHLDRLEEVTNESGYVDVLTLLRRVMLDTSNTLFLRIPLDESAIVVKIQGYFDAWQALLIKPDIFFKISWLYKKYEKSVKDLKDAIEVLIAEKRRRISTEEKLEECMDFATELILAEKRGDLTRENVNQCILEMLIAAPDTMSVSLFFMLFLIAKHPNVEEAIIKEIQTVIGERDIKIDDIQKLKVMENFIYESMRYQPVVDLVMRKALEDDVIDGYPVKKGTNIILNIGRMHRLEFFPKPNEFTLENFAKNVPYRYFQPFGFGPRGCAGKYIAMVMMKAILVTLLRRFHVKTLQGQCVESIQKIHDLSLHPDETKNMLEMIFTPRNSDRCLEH
The data set can be described thus: Selectivity: effect on CYP19 (aromatase). Particulars: concentration as high as 5 μM. The class given is biochemical. The protocol: as §1

A short description of data set [3]: Pharmacokinetic studies in mice (plasma levels by HPLC). The data set is classed as in vivo. The conditions noted are these: mice, 10 mg/kg s.c. The protocol:
FIG. 18: Plasma Levels in Balb/c Mice Following Dose of 10 mg/kg body weight Given s/c.
Pharmacokinetic studies of VN/65-4 and VN/66-1 were measured in mice and were compared to VN/14-1 and VN/50A-1. Mice were dosed s.c. at 10 mg/kg using a vehicle, 45% β-cyclodextrin in water, and plasma levels were measured by HPLC. […] The results are summarized in Table 3 below and the profiles in FIG. 18.

[4] abbreviates: Table 2A, initial testing, read-out: IC50 Value.
[5] abbreviates: Table 2B, repeated testing and additional compounds, read-out: IC50 Value, Inhibition of ATRA 4-Hydroxylase.

Like-named read-outs stand apart in the source and are kept apart here.

As to `CC1=C(/C=C/C(C)=C/C=C/C(C)=C/C(=O)O)C(C)(C)CCC1n1cnnc1` (racemic) [VN/17-1], the IC50 at ATRA 4-hydroxylase (setting [4]) was 1620 nM. Also, the 50% inhibitory concentration (IC50) at ATRA 4-hydroxylase (setting [5]) stood at 25 ± 0.5 nM. In the data set with LNCaP cells, the “inhibition of proliferation of LNCaP cells” value (“inhibition … of LNCaP cells” for short) is reported as “inhibit the proliferation of LNCaP cells better than no drug or ATRA only” and the “concentration(s) that prevent the LNCaP cells from increasing in number” value was “All concentrations”.
As to `COC(=O)C=C(C)C=CC=C(C)C=CC1=C(C)C(n2cnnc2)CCC1(C)C` (racemic) [VN/13-2, (±)-4-(4H-1,2,4-triazole-1-yl)methyl retinoate], on ATRA 4-hydroxylase (setting [5]), the IC50 amounted to 10 ± 0.3 nM.
`COC(=O)C=C(C)C=CC=C(C)C=CC1=C(C)C(n2cncn2)CCC1(C)C` (racemic) [VN/13-1, (±)-4-(1H-1,2,4-triazol-1-yl)methyl retinoate]: the IC50 came to 680 ± 3 nM at ATRA 4-hydroxylase (setting [4]) and 1 ± 0.05 nM on ATRA 4-hydroxylase (setting [5]).
Consider `CC1=C(/C=C/C(C)=C/C=C/C(C)=C/C(=O)O)C(C)(C)CCC1n1cncn1` (racemic) [VN/16-1, (±)-4-(1H-1,2,4-triazol-1-yl)retinoic acid], for which the IC50 on ATRA 4-hydroxylase (setting [4]) came to 880 ± 8 nM. Moreover, the IC50 on ATRA 4-hydroxylase (setting [5]) is 5 ± 0.25 nM. Besides, in the data set on LNCaP cells, the “inhibition … of LNCaP cells” value is “inhibit the proliferation of LNCaP cells better than no drug or ATRA only” and the “concentration(s) that prevent the LNCaP cells from increasing in number” value was 10^−5 M.
In the case of `Clc1cccc(C(c2ccc3[nH]cnc3c2)n2ccnc2)c1` (stereo not drawn) [Liarozole, reference compound], in the data set on LNCaP cells, the “inhibition … of LNCaP cells” value is recorded as “inhibit the proliferation of LNCaP cells better than no drug or ATRA only” and the “concentration(s) that prevent the LNCaP cells from increasing in number” value was 10^−5 M.
Turning to `CC1=C(/C=C/C(C)=C/C=C/C(C)=C/C(=O)O)C(C)(C)CCC1` [ATRA, All-trans retinoic acid, reference compound], the “preincubation period for maximal induction of 4-hydroxylase activity” value in data set [1] is 18 h. The “tumor weights versus control mice” value in the data set with PC-3 tumors was “significantly (P<0.05) lower”. Further, in the data set with PC-3 tumors (over 7 weeks), the “reduction of tumor volume compared with control” value is reported as 41%. Further, the “increase of total tumor volume” value in the data set with PC-3 tumors (over 7 weeks, control 5.4-fold) was 3.2 fold.
`COC(=O)C=C(C)C=CC=C(C)C=CC1=C(C)C(n2ccnc2)CCC1(C)C` (mixture of isomers) [VN/65-4, (±)-4-(1H-imidazol-1-yl)-13-cis-methylretinoate]: in data set [2], the “rate of plasma elimination of ATRA” value is reported as “delayed the rate of ATRA elimination significantly”. In addition, the “inhibition of CYP17 (17-lyase)” value against CYP17 (17-lyase) is reported as “barely inhibited”. Further, the “inhibition of CYP19 (aromatase)” value against CYP19 (aromatase) was “barely inhibited”. The “in vivo conversion to corresponding acid” value in data set [3] was “rapidly and completely converted to corresponding acid”.

The IC50 is the concentration at which inhibition is half-maximal.
